How the values were obtained:
Type in all cases: in vivo
Phytophthora infestans = conditions: tomatoes (cultivar Rutgers), sprayed to run off at 100 ppm, inoculated after 24 hours
Erysiphe graminis = assay: Powdery Mildew of Wheat (ERYSGT), protectant spray test on wheat seedlings; conditions: wheat (cultivar Monon), sprayed to run off at 100 ppm, inoculated after 24 hours
Puccinia recondita = assay: Brown Rust (PUCCRT), protectant spray test on wheat seedlings; conditions: wheat (cultivar Monon), sprayed to run off at 100 ppm, inoculated after 24 hours
Leptosphaeria nodorum = assay: Glume Blotch of Wheat (LEPTNO), protectant spray test on wheat seedlings; conditions: wheat (cultivar Monon), sprayed to run off at 100 ppm, inoculated after 24 hours

## CNC(=O)C(=NOC)c1ccccc1COc1ncc(C(OC(C)=O)c2ccc(F)cc2)cc1Cl (racemic) [Example 46]
Phytophthora infestans
  PHYTIN control of plant disease: − (− = 0-24% control of plant disease)
Erysiphe graminis
  ERYSGT control of plant disease: ++ (++ = 75-100% control of plant disease)
Puccinia recondita
  PUCCRT control of plant disease: − (− = 0-24% control of plant disease)
Leptosphaeria nodorum
  LEPTNO control of plant disease: ++ (++ = 75-100% control of plant disease)

## CNC(=O)C(=NOC)c1ccccc1COc1ncc(C(C)OC(=O)C(C)(C)C)cc1Cl (racemic) [Example 24]
Phytophthora infestans
  PHYTIN control of plant disease: − (− = 0-24% control of plant disease)
Erysiphe graminis
  ERYSGT control of plant disease: ++ (++ = 75-100% control of plant disease)
Puccinia recondita
  PUCCRT control of plant disease: ++ (++ = 75-100% control of plant disease)
Leptosphaeria nodorum
  LEPTNO control of plant disease: ++ (++ = 75-100% control of plant disease)

## CNC(=O)C(=NOC)c1ccccc1COc1ncc(C(OC=O)c2ccccc2)cc1Cl (racemic) [Example 54]
Phytophthora infestans
  PHYTIN control of plant disease: ++ (++ = 75-100% control of plant disease)
Erysiphe graminis
  ERYSGT control of plant disease: ++ (++ = 75-100% control of plant disease)
Puccinia recondita
  PUCCRT control of plant disease: ++ (++ = 75-100% control of plant disease)
Leptosphaeria nodorum
  LEPTNO control of plant disease: ++ (++ = 75-100% control of plant disease)

## CNC(=O)C(=NOC)c1ccccc1COc1ncc(C(OC)c2ccccc2F)cc1Cl (stereo not shown) [Example 99]
Phytophthora infestans
  PHYTIN control of plant disease: − (− = 0-24% control of plant disease)
Erysiphe graminis
  ERYSGT control of plant disease: ++ (++ = 75-100% control of plant disease)
Puccinia recondita
  PUCCRT control of plant disease: ++ (++ = 75-100% control of plant disease)
Leptosphaeria nodorum
  LEPTNO control of plant disease: ++ (++ = 75-100% control of plant disease)

## CNC(=O)C(=NOC)c1ccccc1COc1ncc(COCc2ccc(OC)cc2)cc1Cl [Example 25]
Phytophthora infestans
  PHYTIN control of plant disease: + (+ = 25-74% control of plant disease)
Erysiphe graminis
  ERYSGT control of plant disease: ++ (++ = 75-100% control of plant disease)
Puccinia recondita
  PUCCRT control of plant disease: ++ (++ = 75-100% control of plant disease)
Leptosphaeria nodorum
  LEPTNO control of plant disease: ++ (++ = 75-100% control of plant disease)

## CNC(=O)C(=NOC)c1ccccc1COc1ncc(C(OC)c2ccccc2)cc1Cl (racemic) [Example 38]
Phytophthora infestans
  PHYTIN control of plant disease: − (− = 0-24% control of plant disease)
Erysiphe graminis
  ERYSGT control of plant disease: + (+ = 25-74% control of plant disease)
Puccinia recondita
  PUCCRT control of plant disease: ++ (++ = 75-100% control of plant disease)
Leptosphaeria nodorum
  LEPTNO control of plant disease: ++ (++ = 75-100% control of plant disease)

## CNC(=O)C(=NOC)c1ccccc1COc1ncc(C(O)c2cccs2)cc1Cl (racemic) [Example 51]
Phytophthora infestans
  PHYTIN control of plant disease: ++ (++ = 75-100% control of plant disease)
Erysiphe graminis
  ERYSGT control of plant disease: ++ (++ = 75-100% control of plant disease)
Puccinia recondita
  PUCCRT control of plant disease: ++ (++ = 75-100% control of plant disease)
Leptosphaeria nodorum
  LEPTNO control of plant disease: ++ (++ = 75-100% control of plant disease)

## CNC(=O)C(=NOC)c1ccccc1COc1ncc(C(O)c2cccc(F)c2)cc1Cl (stereo not shown) [Example 93]
Phytophthora infestans
  PHYTIN control of plant disease: ++ (++ = 75-100% control of plant disease)
Erysiphe graminis
  ERYSGT control of plant disease: ++ (++ = 75-100% control of plant disease)
Puccinia recondita
  PUCCRT control of plant disease: ++ (++ = 75-100% control of plant disease)
Leptosphaeria nodorum
  LEPTNO control of plant disease: ++ (++ = 75-100% control of plant disease)

## CNC(=O)C(=NOC)c1ccccc1COc1ncc(C(O)(COS(=O)(=O)c2ccc(C)cc2)c2ccccc2)cc1Cl (stereo not shown) [Example 94]
Phytophthora infestans
  PHYTIN control of plant disease: ++ (++ = 75-100% control of plant disease)
Erysiphe graminis
  ERYSGT control of plant disease: ++ (++ = 75-100% control of plant disease)
Puccinia recondita
  PUCCRT control of plant disease: ++ (++ = 75-100% control of plant disease)
Leptosphaeria nodorum
  LEPTNO control of plant disease: ++ (++ = 75-100% control of plant disease)

## CNC(=O)C(=NOC)c1ccccc1COc1ncc(C(OC(=O)C(C)(C)C)c2ccccc2)cc1Cl (racemic) [Example 30]
Phytophthora infestans
  PHYTIN control of plant disease: ++ (++ = 75-100% control of plant disease)
Erysiphe graminis
  ERYSGT control of plant disease: + (+ = 25-74% control of plant disease)
Puccinia recondita
  PUCCRT control of plant disease: ++ (++ = 75-100% control of plant disease)
Leptosphaeria nodorum
  LEPTNO control of plant disease: ++ (++ = 75-100% control of plant disease)

## CNC(=O)C(=NOC)c1ccccc1COc1ncc(C(OC(=O)c2ccccc2)c2ccccc2)cc1Cl (racemic) [Example 29]
Phytophthora infestans
  PHYTIN control of plant disease: + (+ = 25-74% control of plant disease)
Erysiphe graminis
  ERYSGT control of plant disease: + (+ = 25-74% control of plant disease)
Puccinia recondita
  PUCCRT control of plant disease: ++ (++ = 75-100% control of plant disease)
Leptosphaeria nodorum
  LEPTNO control of plant disease: ++ (++ = 75-100% control of plant disease)

## CNC(=O)C(=NOC)c1ccccc1COc1ncc(C(OC(C)=O)c2ccc3c(c2)OCO3)cc1Cl (racemic) [Example 60]
Phytophthora infestans
  PHYTIN control of plant disease: ++ (++ = 75-100% control of plant disease)
Erysiphe graminis
  ERYSGT control of plant disease: ++ (++ = 75-100% control of plant disease)
Puccinia recondita
  PUCCRT control of plant disease: ++ (++ = 75-100% control of plant disease)
Leptosphaeria nodorum
  LEPTNO control of plant disease: ++ (++ = 75-100% control of plant disease)

## CNC(=O)C(=NOC)c1ccccc1COc1ncc(C(OC(C)=O)c2ccccc2C(F)(F)F)cc1Cl (stereo not shown) [Example 88]
Phytophthora infestans
  PHYTIN control of plant disease: ++ (++ = 75-100% control of plant disease)
Erysiphe graminis
  ERYSGT control of plant disease: ++ (++ = 75-100% control of plant disease)
Puccinia recondita
  PUCCRT control of plant disease: ++ (++ = 75-100% control of plant disease)
Leptosphaeria nodorum
  LEPTNO control of plant disease: ++ (++ = 75-100% control of plant disease)

## CNC(=O)C(=NOC)c1ccccc1COc1ncc(C(O)c2ccc3ccccc3c2)cc1Cl (racemic) [Example 49]
Phytophthora infestans
  PHYTIN control of plant disease: ++ (++ = 75-100% control of plant disease)
Erysiphe graminis
  ERYSGT control of plant disease: ++ (++ = 75-100% control of plant disease)
Puccinia recondita
  PUCCRT control of plant disease: ++ (++ = 75-100% control of plant disease)
Leptosphaeria nodorum
  LEPTNO control of plant disease: ++ (++ = 75-100% control of plant disease)

## CNC(=O)C(=NOC)c1ccccc1COc1ncc(C(OC(C)=O)c2cccs2)cc1Cl (stereo not shown) [Example 77]
Phytophthora infestans
  PHYTIN control of plant disease: ++ (++ = 75-100% control of plant disease)
Erysiphe graminis
  ERYSGT control of plant disease: ++ (++ = 75-100% control of plant disease)
Puccinia recondita
  PUCCRT control of plant disease: ++ (++ = 75-100% control of plant disease)
Leptosphaeria nodorum
  LEPTNO control of plant disease: ++ (++ = 75-100% control of plant disease)

## CCC(OC(C)=O)c1cnc(OCc2ccccc2C(=NOC)C(=O)NC)c(Cl)c1 (stereo not shown) [Example 91]
Phytophthora infestans
  PHYTIN control of plant disease: ++ (++ = 75-100% control of plant disease)
Erysiphe graminis
  ERYSGT control of plant disease: ++ (++ = 75-100% control of plant disease)
Puccinia recondita
  PUCCRT control of plant disease: ++ (++ = 75-100% control of plant disease)
Leptosphaeria nodorum
  LEPTNO control of plant disease: ++ (++ = 75-100% control of plant disease)

## CNC(=O)C(=NOC)c1ccccc1COc1ncc(C(O)c2ccccc2C(F)(F)F)cc1Cl (stereo not shown) [Example 81]
Phytophthora infestans
  PHYTIN control of plant disease: ++ (++ = 75-100% control of plant disease)
Erysiphe graminis
  ERYSGT control of plant disease: ++ (++ = 75-100% control of plant disease)
Puccinia recondita
  PUCCRT control of plant disease: ++ (++ = 75-100% control of plant disease)
Leptosphaeria nodorum
  LEPTNO control of plant disease: + (+ = 25-74% control of plant disease)

## CNC(=O)C(=NOC)c1ccccc1COc1ncc(C(O)c2cccc(C(F)(F)F)c2)cc1Cl (racemic) [Example 12]
Phytophthora infestans
  PHYTIN control of plant disease: ++ (++ = 75-100% control of plant disease)
Erysiphe graminis
  ERYSGT control of plant disease: ++ (++ = 75-100% control of plant disease)
Puccinia recondita
  PUCCRT control of plant disease: ++ (++ = 75-100% control of plant disease)
Leptosphaeria nodorum
  LEPTNO control of plant disease: ++ (++ = 75-100% control of plant disease)

## CNC(=O)C(=NOC)c1ccccc1COc1ncc(C(OC(=O)COC)c2ccccc2)cc1Cl (racemic) [Example 64]
Phytophthora infestans
  PHYTIN control of plant disease: ++ (++ = 75-100% control of plant disease)
Erysiphe graminis
  ERYSGT control of plant disease: ++ (++ = 75-100% control of plant disease)
Puccinia recondita
  PUCCRT control of plant disease: ++ (++ = 75-100% control of plant disease)
Leptosphaeria nodorum
  LEPTNO control of plant disease: + (+ = 25-74% control of plant disease)

## CCOC(c1ccccc1)c1cnc(OCc2ccccc2C(=NOC)C(=O)NC)c(Cl)c1 (stereo not shown) [Example 69]
Phytophthora infestans
  PHYTIN control of plant disease: − (− = 0-24% control of plant disease)
Erysiphe graminis
  ERYSGT control of plant disease: ++ (++ = 75-100% control of plant disease)
Puccinia recondita
  PUCCRT control of plant disease: ++ (++ = 75-100% control of plant disease)
Leptosphaeria nodorum
  LEPTNO control of plant disease: ++ (++ = 75-100% control of plant disease)

## CNC(=O)C(=NOC)c1ccccc1COc1ncc(C(OC(C)=O)c2cccc(Cl)c2)cc1Cl (stereo not shown) [Example 75]
Phytophthora infestans
  PHYTIN control of plant disease: ++ (++ = 75-100% control of plant disease)
Erysiphe graminis
  ERYSGT control of plant disease: ++ (++ = 75-100% control of plant disease)
Puccinia recondita
  PUCCRT control of plant disease: ++ (++ = 75-100% control of plant disease)
Leptosphaeria nodorum
  LEPTNO control of plant disease: ++ (++ = 75-100% control of plant disease)

## CNC(=O)C(=NOC)c1ccccc1COc1ncc(C(O)c2ccc3c(c2)OCO3)cc1Cl (racemic) [Example 58]
Phytophthora infestans
  PHYTIN control of plant disease: ++ (++ = 75-100% control of plant disease)
Erysiphe graminis
  ERYSGT control of plant disease: ++ (++ = 75-100% control of plant disease)
Puccinia recondita
  PUCCRT control of plant disease: ++ (++ = 75-100% control of plant disease)
Leptosphaeria nodorum
  LEPTNO control of plant disease: ++ (++ = 75-100% control of plant disease)

## CCCCCOC(C)c1cnc(OCc2ccccc2C(=NOC)C(=O)NC)c(Cl)c1 (racemic) [Example 41]
Phytophthora infestans
  PHYTIN control of plant disease: − (− = 0-24% control of plant disease)
Erysiphe graminis
  ERYSGT control of plant disease: ++ (++ = 75-100% control of plant disease)
Puccinia recondita
  PUCCRT control of plant disease: ++ (++ = 75-100% control of plant disease)
Leptosphaeria nodorum
  LEPTNO control of plant disease: ++ (++ = 75-100% control of plant disease)

## CNC(=O)C(=NOC)c1ccccc1COc1ncc(C(OC(C)=O)c2cccc(C)c2)cc1Cl (stereo not shown) [Example 106]
Phytophthora infestans
  PHYTIN control of plant disease: ++ (++ = 75-100% control of plant disease)
Erysiphe graminis
  ERYSGT control of plant disease: ++ (++ = 75-100% control of plant disease)
Puccinia recondita
  PUCCRT control of plant disease: ++ (++ = 75-100% control of plant disease)
Leptosphaeria nodorum
  LEPTNO control of plant disease: ++ (++ = 75-100% control of plant disease)

## CNC(=O)C(=NOC)c1ccccc1COc1ncc(C(O)c2ccsc2)cc1Cl (stereo not shown) [Example 109]
Phytophthora infestans
  PHYTIN control of plant disease: ++ (++ = 75-100% control of plant disease)
Erysiphe graminis
  ERYSGT control of plant disease: ++ (++ = 75-100% control of plant disease)
Puccinia recondita
  PUCCRT control of plant disease: ++ (++ = 75-100% control of plant disease)
Leptosphaeria nodorum
  LEPTNO control of plant disease: ++ (++ = 75-100% control of plant disease)

From patent publication US6436963B1 (priority 1998, dated 2002)
